The series in a line: gradient 5% acetonitrile 3 min, to 50% in 2 min, to 85% in 15 min, held 3 min, 100 µL/min. The conditions noted are these: column: Zorbax Extend-C18 2.1 x 50 mm; eluents: water / acetonitrile, 0.1% formic acid. A digest of the protocol: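 Retention times come from adduct peaks that were picked computationally and then checked by hand. The standards, pure and pooled in mixtures of ~100 molecules, were run on a Zorbax Extend-C18 column (2.1 × 50 mm, 1.8 μm) at 100 μL/min with water and acetonitrile, each with 0.1% formic acid. Detection was by quadrupole time-of-flight mass spectrometry in positive and negative ionization mode, with a dead volume of 40 μL and a dwell volume of 900 μL.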
On to `O=C(COc1ccc(F)c(F)c1)Nc1cnc(-c2cccnc2)nc1`, for which the RP-LC retention time was determined as 717 s.

The compound `Cc1ccccc1NC(=O)C1CCCN1S(=O)(=O)c1cc2c(cc1C)NC(=O)CO2` (configuration not stated) yielded an RP-LC retention time of 763 s.

The compound `Cc1ccc(S(=O)(=O)Cc2cccc(-c3nc(-c4cccc(-c5ccnn5C)c4)no3)c2)cc1` came in with an RP-LC retention time of 1140 s.

Turning to `COC(=O)CNC(=O)N1CCCC1c1ccc(OC)cc1` (configuration not stated), the RP-LC retention time came out at 678 s.

Take `CN1CCN(c2ccc(NC(=O)C(C)(C)C)c(C(=O)O)c2)CC1`: the RP-LC retention time amounted to 601 s.

As for `FC(F)(F)c1cccc(-c2ccc(CNCC3CCNCC3)o2)c1`, the RP-LC retention time was found to be 580 s.

Regarding `Cn1c(CNC(=O)CSc2nnc(-c3ccc4c(c3)OCO4)o2)nc2ccccc21`, the RP-LC retention time was 1020 s.

The compound `O=C(NCc1ccc(-c2noc(CCc3ccccc3)n2)s1)C1CC1` showed an RP-LC retention time of 915 s.

`Cc1cc(OCC(=O)N2CCCC2)nc(-c2ccc(Cl)cc2)n1` had an RP-LC retention time of 937 s.

The compound `O=[N+]([O-])c1cc(F)c2cccnc2c1O` displayed an RP-LC retention time of 773 s.

The compound `OC1(c2ccccn2)CCOC2(CCN(Cc3ccccc3OC(F)(F)F)CC2)C1` (configuration not stated) showed an RP-LC retention time of 601 s.

In the case of `CC(C)Cc1cc(-c2nn3c(-c4cccc(F)c4)nnc3s2)n[nH]1`, the RP-LC retention time came out at 993 s.

`Cc1ccc(S(=O)(=O)N2CC(=O)N(Cc3ccccc3)C(C)(C(=O)NCc3ccccc3)C2)cc1` (configuration not stated) yielded an RP-LC retention time of 1010 s.

As to `O=C(Cn1cccc(S(=O)(=O)N2CCOCC2)c1=O)NCc1ccc(Cl)cc1`, the RP-LC retention time stood at 666 s.

On to `CCc1nc2onc(C)c2c(=O)n1CC(=O)NCc1ccc(F)cc1`, for which the RP-LC retention time came out at 783 s.

Compound `NC(=O)c1cc2cc(Br)ccc2[nH]1` gave an RP-LC retention time of 719 s.

In the case of `O=C([C@@H]1C[C@H](F)CN1S(=O)(=O)c1ccc(Br)s1)N1CCCCC1`, the RP-LC retention time came to 839 s.

Turning to `COCCNC(=O)c1csc(N2CCN(c3cccc(OC)c3)CC2)n1`, the RP-LC retention time is 855 s.

Compound `CN(C)c1ccc(NC(=O)COc2ccc(-c3nnc4n3CCCC4)cc2)cc1` gave an RP-LC retention time of 585 s.

`CCc1nc(-c2cccc(-c3noc(CNC(=O)c4ccccc4)n3)c2)cs1` came in with an RP-LC retention time of 1010 s.

With `COc1ccc(N2C(=O)CCC(C(=O)NCCCN3CCCCCC3)C2c2ccc(F)cc2)cc1` (configuration not stated), the RP-LC retention time was determined as 610 s.

Consider `COc1ccc(-c2cn3c(CC(=O)N4CCN(Cc5ccccc5)CC4)csc3n2)cc1OC`, for which the RP-LC retention time came out at 596 s.

For the compound `O=C(Nc1cc(F)ccc1F)N1CCc2nc(-c3ccc(F)cc3)ncc2C1`, the RP-LC retention time stood at 985 s.

`Cc1ccc(CNC(=O)C2Cn3cccc3C(=O)N2CC(C)C)o1` (configuration not stated) gave an RP-LC retention time of 746 s.

Consider `COCC(=O)N1CCCCCNC(=O)[C@@H]2CCCC[C@@H]21`, for which the RP-LC retention time was 631 s.

As for `NC[C@@](O)(c1ccc(Cl)cc1)c1ccc(-c2cn[nH]c2)cc1`, the RP-LC retention time was 678 s.

Compound `CCc1ccc(NC(=O)N2CCc3nc[nH]c3C2)cc1` returned an RP-LC retention time of 612 s.

For the compound `CCOC(=O)N1CCN(C(=O)CN2C(=O)c3ccccc3S2(=O)=O)CC1`, the RP-LC retention time is 643 s.

In the case of `COc1ccc(S(=O)(=O)NCc2ccc3c(c2)CCN3C(=O)CC(C)C)cc1OC`, the RP-LC retention time was 858 s.

Turning to `COCCNC(=O)c1nc(N2CCSCC2)c2c(C)cc(C)nc2n1`, the RP-LC retention time was 591 s.

As to `CCOC(=O)c1c(C)oc2nc(C)nc(NCCc3ccc(Cl)cc3)c12`, the RP-LC retention time came out at 1380 s.

For the compound `CC1Oc2ccc(-c3csc(NC(=O)CCC4CCCCC4)n3)cc2N(C)C1=O` (configuration not stated), the RP-LC retention time amounted to 1230 s.

In turn, `CCNC(=O)c1ccc(-n2nc(C)cc2-c2ccccc2)cc1` came in with an RP-LC retention time of 749 s.

`CN1CC(=O)NC(c2ccccc2F)C1=O` (configuration not stated) displayed an RP-LC retention time of 513 s.

As to `COCCNC(=O)c1ccc(OC2CCN(CC(c3ccccc3)c3ccccc3)CC2)c(OC)c1`, the RP-LC retention time turned out to be 680 s.

Take `COc1ccc(NC(=O)C2(C)Oc3cccnc3N(C)C2=O)c(OC)c1` (configuration not stated): the RP-LC retention time was 815 s.

For `CCc1cccc(NC(=O)C2CCCN(C(=O)C3Sc4ccccc4NC3=O)C2)c1` (configuration not stated), the RP-LC retention time came to 818 s.

Compound `COc1ccccc1C(=O)NC1(C(F)(F)F)C(=O)N(CC2CCCO2)C2=C1C(=O)CC(C)(C)C2` (configuration not stated) gave an RP-LC retention time of 986 s.

Regarding `COC(=O)Cn1c(C2CC(=O)N(c3ccc(OC)cc3)C2)nc2ccccc21` (configuration not stated), the RP-LC retention time was determined as 709 s.

In turn, `O=C(Cc1cccn1-c1ccc(F)cc1)N1CCOCC1` displayed an RP-LC retention time of 760 s.

Take `CCC(C)(C)NS(=O)(=O)c1cc(-c2nc(C)cs2)n(C)c1C`: the RP-LC retention time amounted to 1010 s.

Take `Cc1ccnc(N2CCCC(C(=O)NCc3ccc(F)cc3)C2)n1` (configuration not stated): the RP-LC retention time was 709 s.

Regarding `O=C(Cc1nnc(-c2ccc3ncccc3c2)o1)NCCc1ccc(Cl)cc1`, the RP-LC retention time stood at 733 s.

Consider `CC(C)CNC(=O)c1cc(=O)[nH]c2ccccc12`, for which the RP-LC retention time was found to be 729 s.

`COC(=O)c1ccsc1NC(=O)C1COCC(=O)N1Cc1ccccc1` (configuration not stated) returned an RP-LC retention time of 786 s.

For the compound `Cc1cccc(NC(=O)CN2CCC(COCc3ccccc3)CC2)c1C`, the RP-LC retention time was found to be 610 s.

In turn, `CC(C)c1nnc(NC(=O)C2CCN(C(=O)c3ccccc3F)CC2)s1` returned an RP-LC retention time of 727 s.

Compound `O=C(CCc1nc(CSc2nnc(-c3ccccc3)o2)no1)Nc1ccc(F)cc1` gave an RP-LC retention time of 892 s.

In turn, `O=C(NCc1cccs1)NCC1(CO)CC1` displayed an RP-LC retention time of 592 s.

The compound `COc1cc(OC)cc(C(=O)Nc2cc(-c3cn4cccnc4n3)ccc2OC)c1` gave an RP-LC retention time of 708 s.

`O=C1CCCc2cc(S(=O)(=O)N3CCC(C(=O)NCCc4ccccc4)CC3)ccc2N1` displayed an RP-LC retention time of 735 s.

Consider `COc1cccc(CNC(=O)N2CCC(CC(=O)NCc3ccccc3)CC2)c1`, for which the RP-LC retention time came out at 736 s.

In turn, `COCCCN1C(=O)c2cc(-c3ccc(OC)cc3)nn2CC1(C)C(=O)NCc1ccccc1` (configuration not stated) gave an RP-LC retention time of 826 s.

As for `CCC(=O)NCc1nc2c(n1C)CN(C(=O)c1ccc(Br)cc1)CC2`, the RP-LC retention time is 605 s.

Regarding `Cc1ccc(CNC(=O)[C@@]23CCCC[C@H]2N(C)C(=O)CC3)cc1`, the RP-LC retention time turned out to be 688 s.

Consider `O=C(N[C@@H]1CN(c2ncccn2)C[C@H]1CO)c1ccco1`, for which the RP-LC retention time stood at 566 s.

In turn, `COc1cccc(N2CC(c3nc4ccccc4n3CC(=O)N3CCCC3)CC2=O)c1` (configuration not stated) showed an RP-LC retention time of 619 s.

`Cc1nc2ncnn2c(N2CCCC2)c1C` gave an RP-LC retention time of 648 s.

Regarding `CCN1CCC(CCNC(=O)C2CCc3sc(C(=O)N4CCCC4)cc3C2)CC1` (configuration not stated), the RP-LC retention time amounted to 582 s.

With `O=C(c1n[nH]c2ccccc12)N1CCN(c2ccc(C(F)(F)F)cn2)CC1`, the RP-LC retention time was 832 s.

The compound `O=C(NCCN1CCOCC1)c1csc(-c2ccc(N3CCCC3)nc2)n1` yielded an RP-LC retention time of 542 s.

In the case of `O=C(CCNc1cnc2cnccn12)NCc1ccc(F)c(Cl)c1`, the RP-LC retention time is 601 s.

Take `CCC(NC(=O)C1CCN(c2cnc3nccnc3c2)CC1)c1cccs1` (configuration not stated): the RP-LC retention time was 702 s.

`C/C=C(\CCC1NCCc2c1[nH]c1ccccc21)[Si](C)(C)C` (configuration not stated) came in with an RP-LC retention time of 815 s.

`Cc1ccc(Cc2nc(C3CC(=O)N(c4ccc(Cl)cc4)C3)no2)cc1` (configuration not stated): the RP-LC retention time was determined as 1060 s.

Compound `CCN(Cc1ccccc1)C(=O)Cn1nc(C)c2sc(-c3ccccc3)nc2c1=O` showed an RP-LC retention time of 1000 s.

`Cc1c(N2CCC(C(=O)N3CCN(c4ccccn4)CC3)CC2)c(=O)n(C)c(=O)n1-c1ccccc1` showed an RP-LC retention time of 618 s.

`CNC(=O)N1CCc2ccc(C(=O)NC(C)C)cc21` showed an RP-LC retention time of 625 s.

In turn, `C=CCN(CC=C)C(=O)Nc1cc(OC)ccc1OC` came in with an RP-LC retention time of 962 s.

`CCCOc1nc2ccccc2nc1N1CCCC(C(=O)Nc2c(Cl)cc(OC)cc2OC)C1` (configuration not stated) yielded an RP-LC retention time of 1370 s.

On to `Cc1cc(=O)n(CC(=O)NCc2ccccc2Br)c(N2CCOCC2)n1`, for which the RP-LC retention time was determined as 660 s.

`COc1ccc(CC(=O)Nc2cccc(-c3cn4cccnc4n3)c2)cc1` returned an RP-LC retention time of 610 s.

Compound `Cc1ccccc1N1CCN(C(=O)c2ccc3c(c2)CC(=O)N3C)CC1` came in with an RP-LC retention time of 839 s.

In turn, `COC(=O)c1cccc(N2C=C(C#N)S(=O)(=O)c3ccc(F)cc32)c1` came in with an RP-LC retention time of 860 s.

Compound `COc1ccc2c(c1)C1(CCN(C(=O)Cc3cccc(F)c3)C1)C(=O)N2` (configuration not stated) returned an RP-LC retention time of 740 s.

As to `CCCNC(=O)c1nn(-c2ccc(OC)cc2)c(OC)cc1=O`, the RP-LC retention time worked out at 661 s.

As for `O=C(Nc1ccc(F)cc1F)Nc1nccn(-c2cccc(F)c2)c1=O`, the RP-LC retention time came to 971 s.

In turn, `O=C(CSc1ncnc2c1cnn2-c1ccc(Cl)cc1)Nc1ccc(F)cc1F` returned an RP-LC retention time of 750 s.

Compound `O=C(c1cnn2cc(Br)cnc12)N1CCCC1c1ccccc1F` (configuration not stated) gave an RP-LC retention time of 841 s.

Regarding `Cc1ccsc1C(=O)N1CCN(c2ccc(=O)n(-c3cccc(Cl)c3)n2)CC1`, the RP-LC retention time was found to be 853 s.

As to `CCOCCCNC(=O)C1CCN(c2cc(=O)n(C)c(=O)n2CC)CC1`, the RP-LC retention time was determined as 686 s.

As to `Cn1c(=O)sc2cc(S(=O)(=O)N3CCC(C(=O)NC4CC4)CC3)ccc21`, the RP-LC retention time turned out to be 670 s.

The values are drawn from the METLIN SMRT retention time set (Domingo-Almenara et al. 2019).
